Laboratory results as given in patent publication US9956197B2 (priority 2013, dated 2018).

How the values were obtained:
[1] = system: Lithium-pilocarpine induced status epilepticus; design: species or system Sprague-Dawley rats; settings: in vivo
[2] = system: PTZ (Pentylenetetrazol) induced clonic seizure; design: species or system SD rats; settings: rat, in vivo
[3] = system: PTZ (Pentylenetetrazol) induced clonic seizure; experiment: animal or person; assay type: in vivo, ICR mice; settings: mouse, in vivo, ip
[4] = system: ACTH-refractory infantile spasm (behavioral spasms); experiment: animal or person; assay type: in vivo, Sprague-Dawley rats; settings: for inhibition in vivo at 60 mg/kg: read-out: ACTH-refractory IS (ip) Protection %, percentage of activity compared to the vehicle only; for ACTH-refractory IS (ip) Peak Time: rat, in vivo
[5] = system: Picrotoxin (PIC) induced clonic seizure; experiment: animal or person; assay type: in vivo, ICR mice
[6] = system: 6 Hz-induced seizure; experiment: animal or person; assay type: in vivo, mice; settings: ip
[7] = system: Lithium-pilocarpine induced status epilepticus; design: species or system Sprague-Dawley rats; settings: in vivo; remark: listed apart in the source
[8] = Mus musculus, ip, read-out: PIC (ip) percentage of activity compared to the vehicle only

Row | Compound | Prevention (rat, ip) Peak Time [1] [h] | PTZ test (ip) in Rats Peak Time [2] | PTZ test (ip) in Mice Peak Time [3] [h] | inhibition in vivo at 60 mg/kg ([4]; Rattus norvegicus, ip) [%] | ACTH-refractory IS (ip) Peak Time [4] [h] | responders at 10 mg/kg [5, 8] [%] | ED50 ([6]; Mus musculus, read-out: 6 Hz ED50, 44 mA) [mg/kg] | 6 Hz Peak Time ([6]; mouse, in vivo) [h] | ED50 ([4]; Rattus norvegicus, ip, read-out: ACTH-refractory IS (ip) ED50) [mg/kg] | ED50 ([5]; Mus musculus, ip, read-out: PIC (ip) ED50) [mg/kg] | PIC (ip) Peak Time ([5]; mice) [h] | Intervention (rat, iv) Protection % [7] | responders at 50 mg/kg [5, 8] [%] | PTZ test (ip) in Rats Protection % [2]
1 | CC(OC(N)=O)C(O)c1ccccc1Cl (racemic) [Compound 3, 1-(2-chlorophenyl)-1-hydroxypropyl-2-carbamate] | 0.5 | 18.9 (*0.5) h | 0.5 | 34 | 3 | 50 |  |  |  |  |  |  |  | 
2 | C[C@H](OC(N)=O)[C@@H](O)c1ccccc1Cl [Compound 1, 1-(2-chlorophenyl)-(S)-1-hydroxypropyl-(S)-2-carbamate] | 2 |  | 2 |  | 1 |  | 13.7 | 0.25 | 19.8 | 18.2 | 2 |  |  | 
3 | C[C@@H](OC(N)=O)[C@H](O)c1ccccc1Cl [Compound 2, 1-(2-chlorophenyl)-(R)-1-hydroxypropyl-(R)-2-carbamate] | 0.5 | 51.9 (*1) h | 0.5 | 65.9 | 1 |  |  |  |  |  |  | ^a46 (50%) | 16.7 | 
4 | CC[C@H](OC(N)=O)[C@@H](O)c1ccccc1I [Compound 67, 1-(2-iodophenyl)-(S)-1-hydroxybutyl-(S)-2-carbamate] | 0.5 |  | 0.5 | 81.1 | 2 |  |  |  |  |  |  | ^a46 (100%) | 83.3 | ^b30 (33.3%)
